In article PMC5041076, “Ilex kaushue and Its Bioactive Component 3,5-Dicaffeoylquinic Acid Protected Mice from Lipopolysaccharide-Induced Acute Lung Injury” (Scientific Reports, 2016):
Like-named read-outs stand apart in the source and are kept apart here.

Tests used:
[1] = biological target: Human thrombin (Homo sapiens, UniProt P00734); assay: Serine protease enzyme inhibition assay, thrombin
[2] = biological target: T1, Human neutrophil elastase (Homo sapiens, UniProt P08246); assay: Serine protease enzyme inhibition assay, HNE; format: biochemical; details: for Inh % (HNE inhibition): at 30 M (so in the source); for selectivity of inhibitory effect among serine proteases: five serine proteases examined
T1 construct: purchased Enzo BML-SE284
T1 sequence (P08246 30-267): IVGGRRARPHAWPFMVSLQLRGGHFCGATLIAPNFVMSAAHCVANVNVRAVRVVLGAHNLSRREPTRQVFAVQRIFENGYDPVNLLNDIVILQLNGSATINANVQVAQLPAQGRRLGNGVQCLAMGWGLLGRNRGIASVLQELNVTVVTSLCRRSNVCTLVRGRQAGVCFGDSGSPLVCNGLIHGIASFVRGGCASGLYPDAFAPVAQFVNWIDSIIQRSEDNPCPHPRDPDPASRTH

[3] = system: fMLF/CB-activated neutrophils; assay: O2.- generation in fMLF/CB-activated neutrophils (ferricytochrome c reduction); format: cell-based, human; details: for IC50 / IC50 O2^.− generation: fMLF/CB-activated human neutrophils
Experimental: (§1) All assays were performed as described previously[58],[59]. Neutrophils isolated from the blood of healthy volunteers (20–30 years old) were resuspended in a Ca^2+-free HBSS buffer (pH 7.4) at 4 °C before use. O2^.− generation was measured based on reduction of ferricytochrome c. In brief, after supplementation with 0.5 mg/ml ferricytochrome c and 1 mM Ca^2+, neutrophils were equilibrated at 37 °C for 2 min and incubated with the specified drugs for 5 min. Neutrophils were activated using 30 nM fMLF or 100 nM LTB4 for 10 min after addition of cytochalasin B (CB, 1 μg/mL) for 3 min. Changes in absorbance concomitant with reduction of ferricytochrome c at 550 nm were continuously monitored. For elastase release, neutrophils (6 × 10^5 cells/mL) were mixed with methoxysuccinyl-Ala-Ala-Pro-Val-pNA (100 μM) substrate at 37 °C for 5 min. […] Inhibition of superoxide generation and elastase release were calculated in keeping with previous reports.

[4] = system: fMLF/CB-activated neutrophils; assay: Elastase release in fMLF/CB-activated neutrophils; format: cell-based; details: for IC50: read-out: IC50 HNE (NE activity / elastase release)
Experimental: as §1

[5] = biological target: T2, Human cathepsin G (Homo sapiens, UniProt P08311); assay: Serine protease enzyme inhibition assay, cathepsin G; format: biochemical; details: mean ± S.E.M. (n ≥ 3)
T2 construct: purchased Enzo BML-SE283
T2 sequence (P08311 21-255): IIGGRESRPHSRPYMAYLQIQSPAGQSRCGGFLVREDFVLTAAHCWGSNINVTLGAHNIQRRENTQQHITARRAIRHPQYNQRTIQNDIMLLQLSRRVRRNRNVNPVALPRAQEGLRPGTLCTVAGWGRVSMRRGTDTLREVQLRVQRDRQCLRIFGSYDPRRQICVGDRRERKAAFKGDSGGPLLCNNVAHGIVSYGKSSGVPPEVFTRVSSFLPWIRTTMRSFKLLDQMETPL

[6] = biological target: T3, Human proteinase 3 (Homo sapiens, UniProt P24158); assay: Serine protease enzyme inhibition assay, proteinase 3; format: biochemical; details: mean ± S.E.M. (n ≥ 3)
T3 construct: purchased Merk 539483
T3 sequence (P24158 28-256): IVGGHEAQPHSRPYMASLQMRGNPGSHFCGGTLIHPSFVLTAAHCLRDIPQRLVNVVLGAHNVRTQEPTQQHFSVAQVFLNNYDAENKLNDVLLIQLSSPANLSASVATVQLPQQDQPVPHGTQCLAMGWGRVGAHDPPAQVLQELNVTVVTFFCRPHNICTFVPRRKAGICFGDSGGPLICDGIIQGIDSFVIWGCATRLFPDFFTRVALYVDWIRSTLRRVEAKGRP

[7] = biological target: T4, Bovine chymotrypsin (Bos taurus, UniProt P00766); assay: Serine protease enzyme inhibition assay, chymotrypsin; format: biochemical; details: mean ± S.E.M. (n ≥ 3)
T4 construct: purchased Sigma-Aldrich C4129

[8] = Table S3, read-out: IC50 HNE inhibitory activity
[9] = enzyme assay, mean ± S.E.M. (n ≥ 3), read-out: IC50 HNE
[10] = fMLF/CB-activated human neutrophils
[11] = read-out: IC50 Thrombin, enzyme assay, mean ± S.E.M. (n ≥ 3)
[12] = Neutrophil, fMLF/CB-activated human neutrophils

Structure (SMILES)	IC50 [1]	IC50 [2, 8]	IC50 ([3]; Neutrophil)	IC50 O2^.− generation [3]	IC50 ([4]; Homo sapiens, Neutrophil)	Inh % (HNE inhibition) ([2]; Table S3)	IC50 [2, 9]	IC50 [5]	IC50 [6]	IC50 [7]	IC50 [3]	IC50 [4, 10]	IC50 [1, 11]	IC50 [4, 12]	selectivity of inhibitory effect among serine proteases [2]	IC50 HNE (NE activity / elastase release) [4, 10]	efficacy relative to ursolic acid ([3]; fMLF-induced neutrophils)
NCCc1ccc(S(=O)(=O)F)cc1 [AEBSF, 4-(2-aminoethyl)-benzenesulphonyl fluoride, reference compound]	251 ± 8.78 µM	–	–	–	–	–	–	–	–	–	–	–	–	–	–	–	–
O=C(O)/C=C/c1ccc(O)c(O)c1 [CA, caffeic acid, reference compound]	–	> 30 µM	1.42 ± 0.02 µM	potently inhibit	> 10 µM	–	–	–	–	–	–	–	–	–	–	–	–
O=C(C=Cc1ccc(O)c(O)c1)OC1CC(O)(C(=O)O)CC(O)C1O (stereo not shown) [Compound 1]	–	–	–	–	–	-2.99 ± 1.35%	> 30 µM	> 30 µM	> 30 µM	> 30 µM	1.54 ± 0.29 µM	> 10 µM	> 30 µM	–	–	–	–
O=C(C=Cc1ccc(O)c(O)c1)OC1C(O)CC(O)(C(=O)O)CC1O (stereo not shown) [Compound 2]	–	–	–	–	–	-3.43 ± 4.85%	> 30 µM	> 30 µM	> 30 µM	> 30 µM	2.81 ± 1 µM	> 10 µM	> 30 µM	–	–	–	–
O=C(/C=C/c1ccc(O)c(O)c1)O[C@@H]1C[C@](O)(C(=O)O)C[C@@H](O)[C@H]1O [Compound 3, Chlorogenic acid]	> 30 µM	–	2.56 ± 1.06 µM	–	–	-4.76 ± 3.36%	> 30 µM	> 30 µM	> 30 µM	> 30 µM	–	–	–	> 10 µM	–	–	–
O=C(O)C=Cc1cccc(O)c1 [Compound 3-HCA, 3-hydroxycinnamic acid, reference compound]	–	> 30 µM	> 10 µM	non-active	> 10 µM	-3.63 ± 3.91%	–	–	–	–	–	–	–	–	–	–	–
O=C(/C=C/c1ccc(O)c(O)c1)O[C@H]1[C@H](O)C[C@](O)(C(=O)O)C[C@H]1OC(=O)/C=C/c1ccc(O)c(O)c1 [Compound 4, 3,4-DCQA]	–	–	–	–	–	9.91 ± 0.99%	> 30 µM	> 30 µM	> 30 µM	> 30 µM	1.7 ± 0.28 µM	> 10 µM	> 30 µM	–	–	–	–
O=C(/C=C/c1ccc(O)c(O)c1)O[C@H]1[C@H](O)C[C@](O)(C(=O)O)C[C@H]1OC(=O)/C=C/c1ccc(O)c(O)c1 [Compound 7, 4,5-DCQA]	–	–	–	–	–	36.42 ± 2.25%	> 30 µM	> 30 µM	> 30 µM	> 30 µM	1.49 ± 0.38 µM	> 10 µM	> 30 µM	–	–	–	–
C[C@H]1[C@H](C)CC[C@]2(C(=O)O)CC[C@]3(C)C(=CC[C@@H]4[C@@]5(C)CC[C@H](O)C(C)(C)[C@@H]5CC[C@]43C)[C@H]12 [Compound 9, ursolic acid]	6.37 ± 0.6 µM	–	0.99 ± 0.26 µM	good inhibitory effects	1.07 ± 0.33 µM	–	11.5 ± 1.28 µM	> 30 µM	7.33 ± 0.65 µM	6.06 ± 0.05 µM	–	–	–	–	non-selective inhibitory effects	good inhibitory effects	–
CC1(C)[C@@H](O)CC[C@]2(C)[C@H]3C=CC4=C5[C@]6(CC[C@](C)(OC6=O)[C@@]5(C)O)CC[C@@]4(C)[C@]3(C)CC[C@@H]12 [Compound 11-1]	–	–	–	–	–	–	> 30 µM	> 30 µM	7.62 ± 0.32 µM	8.06 ± 0.4 µM	> 10 µM	> 10 µM	> 30 µM	–	–	–	–
C=C1C2=C3C=C[C@@H]4[C@@]5(C)CC[C@H](O)C(C)(C)[C@@H]5CC[C@@]4(C)[C@]3(C)CC[C@@]23CC[C@]1(C)OC3=O [Compound 11-2]	–	–	–	–	–	–	8.55 ± 1.77 µM	> 30 µM	1.99 ± 0.25 µM	6.04 ± 0.29 µM	> 10 µM	> 10 µM	2.98 ± 0.35 µM	–	non-selective inhibitory effects	–	–
C[C@@H]1O[C@@H](O[C@H]2[C@H](O[C@H]3CC[C@]4(C)[C@H]5C=CC6=C7[C@]8(CC[C@](C)(OC8=O)[C@@]7(C)O)CC[C@@]6(C)[C@]5(C)CC[C@H]4C3(C)C)OC[C@H](O)[C@@H]2O[C@@H]2O[C@H](CO)[C@@H](O)[C@H](O)[C@H]2O)[C@H](O)[C@H](O)[C@H]1O [Compound 11]	–	–	–	–	–	–	> 30 µM	> 30 µM	> 30 µM	> 30 µM	> 10 µM	> 10 µM	> 30 µM	–	–	–	–
CC1(C)CC[C@]2(C(=O)O)CC[C@]3(C)C(=CC[C@@H]4[C@@]5(C)CC[C@H](O)C(C)(C)[C@@H]5CC[C@]43C)[C@@H]2[C@@H]1O [Compound 14-1]	–	–	–	–	–	–	> 30 µM	> 30 µM	> 30 µM	> 30 µM	4.77 ± 0.4 µM	2.84 ± 1.02 µM	> 30 µM	–	–	–	–
C[C@@H]1O[C@@H](O[C@H]2[C@H](OC(=O)[C@]34CCC(C)(C)[C@@H](O)[C@H]3C3=CC[C@@H]5[C@@]6(C)CC[C@H](O[C@@H]7OC[C@H](O)[C@H](O[C@@H]8O[C@H](CO)[C@@H](O)[C@H](O)[C@H]8O)[C@H]7O[C@@H]7O[C@@H](C)[C@H](O)[C@@H](O)[C@H]7O)C(C)(C)[C@@H]6CC[C@@]5(C)[C@]3(C)CC4)O[C@H](CO)[C@@H](O)[C@@H]2O)[C@H](O)[C@H](O)[C@H]1O [Compound 14]	–	–	–	–	–	–	> 30 µM	> 30 µM	> 30 µM	> 30 µM	> 10 µM	> 10 µM	> 30 µM	–	–	–	–
CC1=C2C3=CCC4[C@@]5(C)CC[C@H](O)C(C)(C)C5CC[C@@]4(C)[C@]3(C)CC[C@@]2(C(=O)O)CC[C@H]1C (stereo partly shown) [Compound 15-1, randialic acid B]	24.9 ± 1.33 µM	–	0.14 ± 0.09 µM	good inhibitory effects	–	–	> 30 µM	> 30 µM	17.44 ± 0.16 µM	16.98 ± 0.1 µM	–	–	–	0.06 ± 0.01 µM	–	good inhibitory effects	5 fold
CC(C)(C)C(=O)Oc1ccc(S(=O)(=O)Nc2ccccc2C(=O)NCC(=O)O)cc1 [Elaspol, reference compound]	–	–	–	–	–	–	–	–	0.56 ± 0.06 µM	–	–	–	–	–	–	–	–
COc1cc(/C=C/C(=O)O)ccc1O [FA, ferulic acid, reference compound]	–	> 30 µM	–	non-active	–	0.06 ± 4.79%	–	–	–	–	> 10 µM	> 10 µM	–	–	–	–	–
O=C(O)[C@]1(O)C[C@@H](O)[C@@H](O)[C@H](O)C1 [QA, quinic acid]	–	–	> 10 µM	–	> 10 µM	–	–	–	–	–	–	–	–	–	–	–	–
O=C(/C=C/c1ccc(O)c(O)c1)O[C@H](Cc1ccc(O)c(O)c1)C(=O)O [RA, rosaminiric acid, reference compound]	–	> 30 µM	–	potently inhibit	–	10.58 ± 4.03%	–	–	–	–	1.29 ± 0.09 µM	> 10 µM	–	–	–	–	–
O=C(O)c1cc(O)c(O)c(O)c1 [THBA, 3,4,5-trihyroxybenzoic acid, reference compound]	–	–	–	potently inhibit	–	–	–	–	–	–	1.14 ± 0.08 µM	> 10 µM	–	–	–	–	–
O=C(O)/C=C/c1ccc(O)cc1 [p-CA, p-coumaric acid, reference compound]	–	> 30 µM	> 10 µM	non-active	> 10 µM	-4.00 ± 3.42%	–	–	–	–	–	–	–	–	–	–	–
